According to patent US10899754B2, “Modulators of indoleamine 2,3-dioxygenase” (GLAXOSMITHKLINE INTELLECTUAL PROPERTY DEVELOPMENT LIMITED, priority 2016, dated 2021):

Columns and labels:
[1] = test system: human epithelial HeLa cells; experiment: HeLa cytotoxicity assay (CellTiter-Glo); assay type: cell-based; conditions: pCC50
Description: (§1) Compounds of the present invention were tested via high-throughput cellular assays utilizing detection of kynurenine via mass spectrometry and cytotoxicity as end-points. For the mass spectrometry and cytotoxicity assays, human epithelial HeLa cells (CCL-2; ATCC®, Manassas, Va.) were stimulated with human interferon-γ (IFN-γ) (Sigma-Aldrich Corporation, St. Louis, Mo.) to induce the expression of indoleamine 2, 3-dioxygenase (IDO1). Compounds with IDO1 inhibitory properties decreased the amount of kynurenine produced by the cells via the tryptophan catabolic pathway. Cellular toxicity due to the effect of compound treatment was measured using CellTiter-Glo® reagent (CTG) (Promega Corporation, Madison, Wis.), which is based on luminescent detection of ATP, an indicator of metabolically active cells.
(§2) In preparation for the assays, test compounds were serially diluted 3-fold in DMSO from a typical top concentration of 1 mM or 5 mM and plated at 0.5 μL in 384-well, polystyrene, clear bottom, tissue culture treated plates with lids (Greiner Bio-One, Kremsmünster, Austria) to generate 11-point dose response curves. Low control wells (0% kynurenine or 100% cytotoxicity) contained either 0.5 μL of DMSO in the presence of unstimulated (−IFN-γ) HeLa cells for the mass spectrometry assay or 0.5 μL of DMSO in the absence of cells for the cytotoxicity assay, and high control wells (100% kynurenine or 0% cytotoxicity) contained 0.5 μL of DMSO in the presence of stimulated (+IFN-γ) HeLa cells for both the mass spectrometry and cytotoxicity assays.
(§3) Frozen stocks of HeLa cells were washed and recovered in DMEM high glucose medium with HEPES (Thermo Fisher Scientific, Inc., Waltham, Mass.) supplemented with 10% v/v certified fetal bovine serum (FBS) (Thermo Fisher Scientific, Inc., Waltham, Mass.), and 1× penicillin-streptomycin antibiotic solution (Thermo Fisher Scientific, Inc., Waltham, Mass.). The cells were diluted to 100,000 cells/mL in the supplemented DMEM medium. 50 μL of either the cell suspension, for the mass spectrometry assay, or medium alone, for the cytotoxicity assay, were added to the low control wells, on the previously prepared 384-well compound plates, resulting in 5,000 cells/well or 0 cells/well respectively. IFN-γ was added to the remaining cell suspension at a final concentration of 10 nM, and 50 μL of the stimulated cells were added to all remaining wells on the 384-well compound plates. The plates, with lids, were then placed in a 37° C., 5% CO2 humidified incubator for 2 days.
(§4) Following incubation, the 384-well plates were removed from the incubator and allowed to equilibrate to room temperature for 30 minutes. For the cytotoxicity assay, CellTiter-Glo® was prepared according to the manufacturer's instructions, and 10 μL were added to each plate well. After a twenty minute incubation at room temperature, luminescence was read on an EnVision® Multilabel Reader (PerkinElmer Inc., Waltham, Mass.). For the mass spectrometry assay, 10 μL of supernatant from each well of the compound-treated plates were added to 40 μL of acetonitrile, containing 10 μM of an internal standard for normalization, in 384-well, polypropylene, V-bottom plates (Greiner Bio-One, Kremsmünster, Austria) to extract the organic analytes. Following centrifugation at 2000 rpm for 10 minutes, 10 μL from each well of the acetonitrile extraction plates were added to 90 μL of sterile, distilled H2O in 384-well, polypropylene, V-bottom plates for analysis of kynurenine and the internal standard on the RapidFire 300 (Agilent Technologies, Santa Clara, Calif.) and 4000 QTRAP MS (SCIEX, Framingham, Mass.). MS data were integrated using Agilent Technologies' RapidFire Integrator software, and data were normalized for analysis as a ratio of kynurenine to the internal standard. […]

[2] = molecular target: indoleamine 2, 3-dioxygenase (IDO1) (Homo sapiens, UniProt P14902); experiment: IDO1 HeLa RapidFire MS assay (kynurenine detection by mass spectrometry); assay type: cell-based; design: to induce the expression of indoleamine 2, 3-dioxygenase (IDO1); conditions: HeLa cells, pIC50, read-out: IDO1_HELA_PXC50 (converted)
Sequence of indoleamine 2, 3-dioxygenase (IDO1) (P14902 whole entry): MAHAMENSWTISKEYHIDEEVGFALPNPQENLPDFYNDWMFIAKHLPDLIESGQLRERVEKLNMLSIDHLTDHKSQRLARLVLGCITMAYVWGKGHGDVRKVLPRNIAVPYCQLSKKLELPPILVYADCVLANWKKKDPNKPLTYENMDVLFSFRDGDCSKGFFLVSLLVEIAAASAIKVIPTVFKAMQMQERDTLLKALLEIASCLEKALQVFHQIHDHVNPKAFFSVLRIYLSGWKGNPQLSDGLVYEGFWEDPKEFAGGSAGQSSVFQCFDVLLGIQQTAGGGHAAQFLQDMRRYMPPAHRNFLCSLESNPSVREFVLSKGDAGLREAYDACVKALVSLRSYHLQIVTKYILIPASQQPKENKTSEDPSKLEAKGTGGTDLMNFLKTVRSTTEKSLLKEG
Description: IDO1 HeLa RapidFire MS Assay
as §1, §2, §3, §4

IC50 [2] [nM] | SMILES | HELA_IDO1_TOX_PXC50 [1]
2510 | CC(C)CN(CC(C)C)c1ccc(-c2ccccc2C(=O)O)cc1Nc1ccn(C)n1 [example 280, 4′-[bis(2-methylpropyl)amino]-3′-[(1-methyl-1H-pyrazol-3-yl)amino]-[1,1′-biphenyl]-2-carboxylic acid] | <5
3160 | CC(C)CN(CC(C)C)c1ccc(C(C)CC(=O)O)cc1Nc1ccc(C(N)=O)cn1 (stereo not drawn) [example 204, 3-{4-[bis(2-methylpropyl)amino]-3-[(5-carbamoylpyridin-2-yl)amino]phenyl}butanoic acid] | <5
3160 | CC(C)CN(CC(C)C)c1ccc(C(C)CC(=O)O)cc1Nc1nnc(CC(N)=O)s1 (stereo not drawn) [example 195, 3-{4-[bis(2-methylpropyl)amino]-3-{[5-(carbamoylmethyl)-1,3,4-thiadiazol-2-yl]amino}phenyl}butanoic acid] | <5
6310 | CC(C)CN(c1ccc(-c2ccccc2C(=O)O)cc1Nc1nc(C(=O)O)ns1)C1CCCCC1 [example 275, 5-({2′-carboxy-4-[cyclohexyl(2-methylpropyl)amino]-[1,1′-biphenyl]-3-yl}amino)-1,2,4-thiadiazole-3-carboxylic acid] | <5
794 | COCCN(c1ccc(-c2ccccc2C(=O)O)cc1Nc1nc2ccccc2[nH]1)C1CCCCC1 [example 285, 3′-[(1H-1,3-benzodiazol-2-yl)amino]-4′-[cyclohexyl(2-methoxyethyl)amino]-[1,1′-biphenyl]-2-carboxylic acid] | <5
3160 | CC(C)CN(c1ccc(C(C)CC(=O)O)cc1NC1CCN(C)C1)C1CCCCC1 (stereo not drawn) [example 144, 3-{4-[cyclohexyl(2-methylpropyl)amino]-3-[(1-methylpyrrolidin-3-yl)amino]phenyl}butanoic acid] | <5
3980 | CC(C)CN(CC(C)C)c1ccc(C(C)CC(=O)O)cc1Nc1nc(C(C)(C)C)cs1 (stereo not drawn) [example 133, 3-{4-[bis(2-methylpropyl)amino]-3-[(4-tert-butyl-1,3-thiazol-2-yl)amino]phenyl}butanoic acid] | 4.5
316 | CC(C)CN(c1ccc(-c2ccccc2C(=O)O)cc1NCCC#N)C1CCCCC1 [example 277, 3′-[(2-cyanoethyl)amino]-4′-[cyclohexyl(2-methylpropyl)amino]-[1,1′-biphenyl]-2-carboxylic acid] | <5
100 | CC(C)CN(c1ccc(-c2ccncc2C(=O)O)cc1Nc1nc2ccccc2o1)C1CCCCC1 [example 281, 4-{3-[(1,3-benzoxazol-2-yl)amino]-4-[cyclohexyl(2-methylpropyl)amino]phenyl}pyridine-3-carboxylic acid] | <5
3160 | CC(C)CN(c1ccc(C(C)CC(=O)O)cc1Nc1nc2n(n1)CCCC2)C1CCCCC1 (stereo not drawn) [example 150, 3-{4-[cyclohexyl(2-methylpropyl)amino]-3-({5H,6H,7H,8H-[1,2,4]triazolo[1,5-a]pyridin-2-yl}amino)phenyl}butanoic acid] | <5
794 | CC(C)CN(c1ccc(C(C)CC(=O)O)cc1NC1=N[C@@H](c2ccccc2)CS1)C1CCCCC1 (stereo partly drawn) [example 149, 3-{4-[cyclohexyl(2-methylpropyl)amino]-3-{[(4S)-4-phenyl-4,5-dihydro-1,3-thiazol-2-yl]amino}phenyl}butanoic acid] | <5
1580 | CC(C)CN(CC(C)C)c1ccc(C(C)CC(=O)O)cc1Nc1nnc(N)s1 (stereo not drawn) [example 208, 3-{3-[(5-amino-1,3,4-thiadiazol-2-yl)amino]-4-[bis(2-methylpropyl)amino]phenyl}butanoic acid] | <5

Second part, the molecule before the results:

SMILES | IC50 [2] [nM] | HELA_IDO1_TOX_PXC50 [1]
CC(C)CN(CC(C)C)c1ccc(C(C)CC(=O)O)cc1Nc1ncc(-c2ccccc2)o1 (stereo not drawn) [example 121, 3-{4-[bis(2-methylpropyl)amino]-3-[(5-phenyl-1,3-oxazol-2-yl)amino]phenyl}butanoic acid] | 7940 | 4.4
CC(C)CN(c1ccc(C(C)CC(=O)O)cc1NC1CCN(C)CC1)C1CCCCC1 (stereo not drawn) [example 140, 3-{4-[cyclohexyl(2-methylpropyl)amino]-3-[(1-methylpiperidin-4-yl)amino]phenyl}butanoic acid] | 3160 | <5
CC(C)CN(CC(C)C)c1ccc(C(C)CC(=O)O)cc1Nc1noc(-c2ccccc2)n1.O=C(O)C(F)(F)F (stereo not drawn) [example 122, 3-{4-[bis(2-methylpropyl)amino]-3-[(5-phenyl-1,2,4-oxadiazol-3-yl)amino]phenyl}butanoic acid] | 25100 | <4.3
CC(C)CN(c1ccc(-c2ccccc2C(=O)O)cc1Nc1nc(C(F)(F)F)ns1)C1CCN(C)CC1 [example 274, 4′-[(1-methylpiperidin-4-yl)(2-methylpropyl)amino]-3′-{[3-(trifluoromethyl)-1,2,4-thiadiazol-5-yl]amino}-[1,1′-biphenyl]-2-carboxylic acid] | 1000 | <5
CC(C)CN(c1ccc(C(C)CC(=O)O)cc1NC1=N[C@H](c2ccccc2)CS1)C1CCCCC1 (stereo partly drawn) [example 148, 3-{4-[cyclohexyl(2-methypropyl)amino]-3-{[(4R)-4-phenyl-4,5-dihydro-1,3-thiazol-2-yl]amino}phenyl}butanoic acid] | 631 | <5
CC(C)CN(c1ccc(C(C)CC(=O)O)cc1NC1COC1)C1CCCCC1 (stereo not drawn) [example 129, 3-{4-[cyclohexyl(2-methylpropyl)amino]-3-[(oxetan-3-yl)amino]phenyl}butanoic acid] | 1580 | <4.3
CC(C)CN(c1ccc(-c2ccccc2C(=O)O)cc1Nc1nc(C(F)(F)F)ns1)C1CCNCC1 [example 272, 4′-[(2-methylpropyl)(piperidin-4-yl)amino]-3′-{[3-(trifluoromethyl)-1,2,4-thiadiazol-5-yl]amino}-[1,1′-biphenyl]-2-carboxylic acid] | 5010 | <5
CC(C)CN(CC(C)C)c1ccc(C(C)CC(=O)O)cc1Nc1nc(-c2ccccc2)cs1 (stereo not drawn) [example 128, 3-{4-[bis(2-methylpropyl)amino]-3-[(4-phenyl-1,3-thiazol-2-yl)amino]phenyl}butanoic acid] | 2510 | 4.4
CC(C)CN(CC(C)C)c1ccc(C(C)CC(=O)O)cc1Nc1ccccc1 (stereo not drawn) [example 142, 3-{4-[bis(2-methylpropyl)amino]-3-(phenylamino)phenyl} butanoic acid] | 158 | <5
Cc1nc(Cc2ccccc2)c(Nc2cc(C(C)CC(=O)O)ccc2N(CC(C)C)CC(C)C)s1 (stereo not drawn) [example 146, 3-{3-[(4-benzyl-2-methyl-1,3-thiazol-5-yl)amino]-4-[bis(2-methylpropyl)amino]phenyl}butanoic acid] | > 10000 | <5
CC(C)CN(c1ccc([C@H](C)CC(=O)O)cc1NC(C)C)C1CCCCC1 [example 180, (3R)-3-{4-[cyclohexyl(2-methylpropyl)amino]-3-[(propan-2-yl)amino]phenyl}butanoic acid] | 3980 | <5
CC(C)CN(CC(C)C)c1ccc([C@@H]2C[C@@H]2C(=O)O)cc1Nc1nc(C(F)(F)F)ns1 (single isomer, unassigned) [example 206] | 31.6 | <5
